Read-outs that look alike come from different tables or passages of the source. A value given as a limit tells only on which side of the number the result lay.

Data set [1] can be described thus: Pharmacokinetics in SD rats, intravenous injection or intragastric administration. It counts as in vivo. The settings on record: for half-life / MRT / bioavailability / Cmax: male, Sprague-Dawley, rat, plasma; for half-life: read-out: half-life T1/2 (converted); for MRT: read-out: residence time MRT; for bioavailability: read-out: bioavailability F; for Cmax: read-out: drug concentration in blood, Cmax. An excerpt: Test Example 3. Study on Oral Pharmacokinetics of the Compounds of the Present Disclosure in SD Rats
SD rats were taken as the test animals. The LC/MS/MS method was used to determine the intravenous injection or intragastric administration of the compounds of the present disclosure in rats, and to determine the drug concentration in plasma at different time points to study the pharmacokinetic characteristics of the compounds of the present disclosure in rats.
Experimental drugs: Olodanrigan, compounds 12, 14, 15 and 16 of the present disclosure;
Animals: 30 healthy adult Sprague Dawley (SD) male rats, purchased from Weitong Lihua Experimental Animal Technology Co. Ltd., production license number: 11400700271077.
An appropriate amount of samples were weighed, and added with DMA, solutol HS 15 (30%, w/v) and normal saline respectively, and then subjected to ultrasound and filtered through PTFE membrane to make a 0.2 mg/mL solution.
An appropriate amount of samples were weighed, added with 0.5% sodium carboxymethyl cellulose (CMC-Na) (containing 0.5% Tween 80), and ultrasonically prepared into a 1 mg/mL suspension. […]
About 0.2 mL of blood was collected from the jugular vein before administration and at 0.083 hours, 0.25 hours, 0.5 hours, 1 hour, 2 hours, 4 hours, 8 hours, 12 hours, and 24 hours after administration, and heparin sodium was used for anticoagulation. The blood samples were collected on ice and centrifuged to separate the plasma (centrifugation conditions: 1500 g, 10 minutes). The collected plasma was stored at −40 to −20° C. before analysis.
10 μL of plasma sample was taken and added with 400 μL of acetonitrile (comprising internal standard working solution which contained verapamil 5 ng/mL and glibenclamide 50 ng/mL). It was vortexed for 10 minutes, centrifuge at 3700 rpm for 10 minutes. 70 μL of the supernatant was taken and added with 70 μL of water, and vortexed for 10 minutes. 2 μL of the mixed solution was taken and injected into LC-MS/MS for sample analysis.

A short description of data set [2]: Metabolic stability in rat liver microsomes. Type of data set: in vitro ADME. The settings on record: pH 7.4; rat liver microsomes 0.5 mg/mL, 1 μM compound, NADPH 1 mM, 0-60 min; read-out: half-life/(T1/2, min). The procedure: Test Example 2. Study on the Metabolic Stability of the Compounds of the Present Disclosure in Rat Liver Microsomes
The purpose of this experimental study is to study the metabolic stability of the compounds of the present disclosure in rat liver microsomes.
The test compounds were co-incubated with rat liver microsomes, and the coenzyme NADPH was added to initiate the reaction. At 0, 5, 15, 30, and 60 minutes, 20 μL of incubation solution was taken out and transferred to 200 μL of acetonitrile containing internal standard to stop the reaction. After protein precipitation, it was centrifuged at 3,700 rpm for 10 minutes. The supernatant was taken and analyzed by LC-MS/MS method after being diluted at 1:1 with water. According to the elimination half-life of the test compound in the incubation system, the in vitro clearance rate was calculated. Midazolam was used as the internal reference compound and incubated for 2 copies in parallel.
The ratio of analyte/internal standard peak area (Aanalyte/AIS) was obtained from the instrument, and the remaining percentage (% Control) was calculated as the ratio of Aanalyte/AIS in the non-zero time point sample to the zero time point sample. Ln (% Control) versus incubation time was plotted and subjected to a linear fitting. The clearance constant (k, min-) and clearance half-life (T1/2, min) of the test compounds were calculated by the following equations.
[formula] 4. Experimental Results

Another data set addresses T1, AT1R (Homo sapiens, UniProt P30556).
T1 construct: Tb (terbium) label on the receptor; expressed in transfected cells
T1 sequence (P30556 1-359): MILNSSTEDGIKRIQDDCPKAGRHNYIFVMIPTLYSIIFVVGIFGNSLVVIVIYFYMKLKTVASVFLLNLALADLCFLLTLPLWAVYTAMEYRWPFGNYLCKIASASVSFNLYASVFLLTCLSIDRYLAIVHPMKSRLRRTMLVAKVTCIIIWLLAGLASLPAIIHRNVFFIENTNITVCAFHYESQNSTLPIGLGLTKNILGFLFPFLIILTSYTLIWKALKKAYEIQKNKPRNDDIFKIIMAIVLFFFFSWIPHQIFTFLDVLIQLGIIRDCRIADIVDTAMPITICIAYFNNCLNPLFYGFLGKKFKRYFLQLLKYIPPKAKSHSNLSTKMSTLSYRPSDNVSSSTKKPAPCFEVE
The experiment in a line: Antagonistic activity on AT1R, same method with Tb-labeled-AT1R cells. Type of data set: binding.

A further data set has as its target T2, human AT2R (Homo sapiens, UniProt P50052).
T2 construct: Tb (terbium) label on the receptor; expressed in transfected cells
T2 sequence (P50052 1-363): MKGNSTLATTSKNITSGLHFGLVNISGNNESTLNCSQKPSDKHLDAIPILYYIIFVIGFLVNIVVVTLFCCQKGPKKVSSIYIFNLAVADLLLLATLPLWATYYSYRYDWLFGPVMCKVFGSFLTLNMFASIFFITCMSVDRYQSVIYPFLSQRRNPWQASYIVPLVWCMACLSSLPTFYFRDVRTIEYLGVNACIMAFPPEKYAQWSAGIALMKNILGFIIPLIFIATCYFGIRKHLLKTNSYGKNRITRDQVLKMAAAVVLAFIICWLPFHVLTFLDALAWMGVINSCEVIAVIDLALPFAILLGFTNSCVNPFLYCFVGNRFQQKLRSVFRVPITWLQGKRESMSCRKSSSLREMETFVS
The experiment in a line: Antagonistic activity on the binding of human AT2R ligand (Tag-lite HTRF ligand binding, Tb-labeled-AT2R cells). Conditions: red agonist fluorescent ligand, 1 hour room temperature. Here is the method:
Test Example 1 Test of the Antagonistic Activity of the Compound of the Present Disclosure on the Binding of Human AT2R Ligand
Angiotensin II Type 2 Receptor (AT2R) is involved in neuron differentiation and regeneration, cell proliferation and angiogenesis, and maintenance of bone mass. […] The following method uses the AT2 ligand binding test to study the degree of antagonism of the compounds of the present disclosure to AT2R.
2. Reagent Preparation • (1) 10 mM of angiotensin II human: 10 mg of Angiotensin II human (purity 99.09%) was dissolved in 0.947 mL of deionized water, aliquoted and stored at −80° C.; • (2) Preparation of compound stock solution
3. […] 4. Experimental Results
On the technique in general: TR-FRET usually uses a lanthanide donor and a delayed reading to cut background.

[3] abbreviates: oral (3 mg/kg) versus injection (1 mg/kg).
Where [4] appears, read: 3 mg/kg, oral (mg/kg), dose not given.
The mark [5] stands for this setting: oral (mg/kg), dose figure not given, versus injection (1 mg/kg).

With `O=C(O)c1cc(N2CCCOc3ccc(F)cc32)ncc1-c1nc2ccc(F)cc2o1` [Compound 15, 2-(7-fluoro-3,4-dihydrobenzo[b][1,4]oxazepine-5(2H)-yl)-5-(6-fluorobenzo[d]oxazol-2-yl)isonicotinic acid], the “area under curve AUO0-∞” value in data set [1] (injection (1 mg/kg)) was 12100 ± 751 ng·h/mL. Besides, in data set [1] (iv, injection (1 mg/kg)), the half-life was 4.5 ± 0.4 h and the MRT – broadly, a mean duration of stay, worked out from the concentration-time curve – was determined as 4.5 ± 0.4 h. In addition, in data set [1] (setting [3]), the bioavailability was 89.9%. Moreover, in data set [1] (oral (3 mg/kg)), the Cmax is 7050 ± 2640 ng/mL, the half-life was 4.2 ± 0.4 h, the MRT amounted to 5.2 ± 0.4 h and the “area under curve AUO0-∞” value stood at 32400 ± 6514 ng·h/mL. The half-life at 1 μM in data set [2] came out at 160 min.
Regarding `O=C(O)c1cc(N2CCCOc3ccc(F)cc32)ncc1-c1nc2ccccc2o1` [Compound 12, 5-(benzo[d]oxazol-2-yl)-2-(7-fluoro-3,4-dihydrobenzo[b][1,4]oxazepine-5(2H)-yl)isonicotinic acid], the “area under curve AUO0-∞” value in data set [1] (injection (1 mg/kg)) stood at 16200 ± 3530 ng·h/mL. Moreover, in data set [1] (iv, injection (1 mg/kg)), the half-life is 8.1 ± 2.1 h and the mean residence time (MRT) stood at 7.3 ± 1.5 h. The bioavailability in data set [1] (setting [3]) is 83.1%. In addition, in data set [1] (oral (3 mg/kg)), the Cmax was 8650 ± 6020 ng/mL, the half-life was 4.7 ± 0.3 h, the mean residence time MRT came to 6.1 ± 0.5 h and the “area under curve AUO0-∞” value was 40400 ± 14272 ng·h/mL. Besides, the half-life at 1 μM in data set [2] was 288 min.
`COc1ccc2c(c1OCc1ccccc1)C[C@@H](C(=O)O)N(C(=O)C(c1ccccc1)c1ccccc1)C2` [olodanrigan, reference compound]: the concentration for half-maximal inhibition (IC50) (as a rule, the concentration at which inhibition is half-maximal) at AT1R was > 10 µM. The “area under curve AUO0-∞” value in data set [1] (injection (1 mg/kg)) was 1230 ± 96 ng·h/mL. In addition, in data set [1] (setting [4]), the Cmax was 470 ± 197 ng/mL, the half-life was 1.5 ± 0.3 h and the mean residence time MRT came to 2.6 ± 1 h. Moreover, in data set [1] (iv, injection (1 mg/kg)), the half-life was 1.6 ± 0.3 h and the mean residence time MRT stood at 0.92 ± 0.16 h. Also, the bioavailability in data set [1] (setting [5]) was found to be 12.1%. For the same molecule, the “area under curve AUO0-∞” value in data set [1] (oral (mg/kg), dose not given) amounted to 1483 ± 715 ng·h/mL. The half-life at 1 μM in data set [2] was 96.3 min.
As for `CN(C(=O)C(c1ccccc1)c1ccccc1)c1cnc(N2CCCOc3cc(F)c(F)cc32)cc1C(=O)O` [Compound 6, 2-(7,8-difluoro-3,4-dihydrobenzo[b][1,4]oxazepine-5(2H)-yl)-5-(N-methyl-2,2-diphenylacetamido)isonicotinic acid], the IC50 against AT1R was > 10 µM; on human AT2R, 26 nM.
For the molecule `N#Cc1ccc2nc(-c3cnc(N4CCCOc5ccc(F)cc54)cc3C(=O)O)oc2c1` [Compound 16, 5-(6-cyanobenzo[d]oxazol-2-yl)-2-(7-fluoro-3,4-dihydrobenzo[b][1,4]oxazepine-5(2H)-yl)isonicotinic acid], the “area under curve AUO0-∞” value in data set [1] (injection (1 mg/kg)) is 20800 ± 1740 ng·h/mL. In addition, in data set [1] (setting [4]), the Cmax is 5250 ± 315 ng/mL, the half-life is 3.7 ± 0.4 h and the MRT is 5.5 ± 0.4 h. Also, in data set [1] (iv, injection (1 mg/kg)), the half-life was 3.3 ± 0.2 h and the MRT was 3.2 ± 0.3 h. In addition, the bioavailability in data set [1] (setting [5]) worked out at 41.3%. The “area under curve AUO0-∞” value in data set [1] (oral (mg/kg), dose not given) amounted to 25800 ± 6100 ng·h/mL. The half-life at 1 μM in data set [2] came out at 598 min.
Regarding `CN(C(=O)C(c1ccccc1)c1ccccc1)c1cnc(N2CCCOc3ccc(F)cc32)cc1C(=O)O` [Compound 5, 2-(7-fluoro-3,4-dihydrobenzo[b][1,4]oxazepine-5(2H)-yl)-5-(N-methyl-2,2-diphenylacetamido)isonicotinic acid], the half-maximal inhibitory concentration (IC50) is > 10 µM against AT1R and 10 nM at human AT2R.
For `CN(C(=O)C(c1ccccc1)c1ccccc1)c1ccc(N2CCCOc3ccc(F)cc32)nc1C(=O)O` [Compound 8, 6-(7-fluoro-3,4-dihydrobenzo[b][1,4]oxazepine-5(2H)-yl)-3-(N-methyl-2,2-diphenylacetamido)picolinic acid] the same measures were > 10 µM and 28 nM.
Regarding `O=C(O)c1cc(N2CCCOc3ccc(F)cc32)ncc1-c1nc2cc(F)ccc2o1` [Compound 14, 2-(7-fluoro-3,4-dihydrobenzo[b][1,4]oxazepine-5(2H)-yl)-5-(5-fluorobenzo[d]oxazol-2-yl)isonicotinic acid], the “area under curve AUO0-∞” value in data set [1] (injection (1 mg/kg)) is 13800 ± 1370 ng·h/mL. Also, in data set [1] (iv, injection (1 mg/kg)), the half-life is 4.7 ± 0.4 h and the MRT is 4.5 ± 0.2 h. The bioavailability in data set [1] (setting [3]) is 105%. Besides, in data set [1] (oral (3 mg/kg)), the Cmax is 14300 ± 5130 ng/mL, the half-life was 3.6 ± 0.2 h, the MRT amounted to 4.7 ± 0.3 h and the “area under curve AUO0-∞” value worked out at 43400 ± 11173 ng·h/mL. Also, the half-life at 1 μM in data set [2] amounted to 600 min.
On to `CN(C(=O)C(c1ccccc1)c1ccccc1)c1ccc(N2CCCOc3ccc(F)cc32)cc1C(=O)O` [Compound 4, 5-(7-fluoro-3,4-dihydrobenzo[b][1,4]oxazepine-5(2H)-yl)-2-(N-methyl-2,2-diphenylacetamido)benzoic acid], for which the half-inhibitory concentration (IC50) against AT1R was > 10 µM; on human AT2R, 37 nM. Further, the half-life at 1 μM in data set [2] is 185 min.

For the origin of these results see patent US12559449B2, “Aromatic ring or heteroaromatic ring derivatives, preparation method therefor and use thereof” (ZHEJIANG HISUN PHARMACEUTICAL CO., LTD., priority 2019, dated 2026).
